Reference: patent US8252832B2, “Kinesin inhibitors as cancer therapeutics” (Novartis AG, priority 2007, dated 2012)

Tests used:
[1] = KMS-11-luc disseminated disease model, host response; assay type: in vivo, mouse; settings: q4d × 3, i.v.
Method: Experiments were performed using immunodeficient SCID-Beige female mice approximately 7-8 weeks old (Charles River Laboratories, Wilmington, Mass.). […] Routine animal care and assurance of welfare were as described above. […] Doses were adjusted to each animal's body weight. […] Approximately 10 minutes prior to imaging, mice were injected i.p. with 150 mg/kg luciferin (Xenogen Corporation, Alameda, Calif.), followed by anesthetization with isoflurane. Photon emission was measured using a charge coupled device camera in the IVIS imaging system (Xenogen Corporation). Briefly, a gray-scale image of the mice was captured, followed by an overlay of a bioluminescence map representing the spatial distribution of photons detected from cleaved luciferin in the cancer cells expressing luciferase. Signal intensity was quantified using a customized version of the IGOR Pro version 4.09A Software (WaveMetrics, Inc., Lake Oswego, Oreg.) called Living Image version 2.50.2 (Xenogen). The sum of all detected photon counts from the right+left legs were determined. Bioluminescence of cancer cells in the animals was measured by imaging on designated days until the first mice developed hind limb paralysis due to disease burden, the main end point for when to humanely euthanize mice. The day of euthanasia for each mouse was recorded, and the remaining percentage of mice surviving was plotted over time (Kaplan-Meier survival analysis). P values were calculated using the log-rank test (GraphPad Prism 4.0 software) to assess differences between treated and control groups (p<0.05 was considered significant). […] Data analysis was as described above.

Colo-205 = experiment: LDH release assay; assay type: cell-based; settings: Homo sapiens
Excerpt: (§1) Identification of tumor types that are the most sensitive to the KSP inhibitors of the present invention can be accomplished using an unbiased approach that uses several cell-based assays. The assays chosen were as follows: • CellTiter-Glo®. This is an assay designed to measure ATP concentration in a cell culture, and can be correlated to cell number. Briefly CellTiter-Glo® (Promega Corporation) is a homogeneous method using the single CellTiter-Glo® reagent to detect ATP wherein ATP in the assay drives the activity of a thermostable luciferase to create a luminescent signal which can then be measured and correlated with the number of viable cells. Briefly, for adherent cells, 1,000 to 5,000 cells/well were plated in 96-well plates (100 μl/well) and let to adhere for 24 hours before being treated with drug. For non-adherent cells, 1,000 to 10,000 cells/well were plated in 96-well plates (100 μl/well) and immediately treated with drug. Drug dilutions were prepared in DMSO at 1000 times the final concentration. These dilutions were then diluted 1/100 in growth media before being added to the cells (11 μl/well) to achieve the desired final concentration. After 48 h in a 37° C. tissue culture incubator, the plates were processed for the CellTiter-Glo®assay according to the manufacturer's instructions. Protocol for a 72 hour cell proliferation assay: The 72 hour assay was performed the same way as the 48 hour assay except for the following modifications: For adherent cells, 500 to 5,000 cells/well were plated in 96-well plates (90 μl/well cell growth media) and left to adhere for 24 hours before being treated with drug. For non-adherent cells, 1,000 to 10,000 cells/well were plated in 96-well plates (90 μl/well cell growth media) and immediately treated with drug. Data values presented represent the concentration of test compound required for a 50% reduction in growth. • LDH release. […] The enzymatic reaction is coupled to a chemical reaction that uses a tetrazolium salt to form a formazan that is red and can be detected by its absorbance at 490 nm. […]

MV4; 11 = experiment: LDH release assay; assay type: cell-based; settings: Homo sapiens; MV4;11, 48 h
Excerpt: as §1

In the case of `CC(C)(C)[C@H](c1nc(-c2cc(F)ccc2F)cn1Cc1ccccc1)N(CC[C@H](N)CF)C(=O)CO` [Compound IIa], the “Max. Δ body weight (Day)” value ([1]; 0.25 mg/kg, D14) is reported as 2.1 ± 1.23 g, the “Max. Δ body weight (Day) (%)” value ([1]; 0.25 mg/kg, D14) is reported as 5.0 ± 2.0% and the “Max. Δ body weight (Day)” value ([1]; 0.5 mg/kg, D14) is reported as 2.5 ± 0.23 g. The “Max. Δ body weight (Day) (%)” value ([1]; 0.5 mg/kg, D14) was 6.7 ± 1.1%, the “Max. Δ body weight (Day)” value ([1]; 1 mg/kg, D13) was -0.74 ± 0.75 g and the “Max. Δ body weight (Day) (%)” value ([1]; 1 mg/kg, D13) was −3.3 ± 4.0%. The EC50 (Colo-205; Colo-205, 48 h) was 110 pM, the EC50 (Colo-205; Colo-205, 72 h) was 160 pM and the EC50 (MV4; 11) was 30 pM.
